Patent US20200048267A1, “OGA INHIBITOR COMPOUNDS” (Janssen Pharmaceutica NV, priority 2017, published 2020)

Tests used:
[1] = biological target: T1, recombinant human Meningioma Expressed Antigen 5 (MGEA5), also referred to as O-GlcNAcase (OGA) (Homo sapiens, UniProt O60502); assay: OGA biochemical assay (inhibition of FM-GlcNAc hydrolysis, fluorescence); conditions: for Emax: read-out: ENZYMATIC Emax (%); for IC50: read-out: ENZYMATIC hOGA, pIC50 (converted)
T1 construct: Full length OGA enzyme was purchased at OriGene (cat # TP322411); purchased OriGene TP322411
T1 sequence (O60502 1-916): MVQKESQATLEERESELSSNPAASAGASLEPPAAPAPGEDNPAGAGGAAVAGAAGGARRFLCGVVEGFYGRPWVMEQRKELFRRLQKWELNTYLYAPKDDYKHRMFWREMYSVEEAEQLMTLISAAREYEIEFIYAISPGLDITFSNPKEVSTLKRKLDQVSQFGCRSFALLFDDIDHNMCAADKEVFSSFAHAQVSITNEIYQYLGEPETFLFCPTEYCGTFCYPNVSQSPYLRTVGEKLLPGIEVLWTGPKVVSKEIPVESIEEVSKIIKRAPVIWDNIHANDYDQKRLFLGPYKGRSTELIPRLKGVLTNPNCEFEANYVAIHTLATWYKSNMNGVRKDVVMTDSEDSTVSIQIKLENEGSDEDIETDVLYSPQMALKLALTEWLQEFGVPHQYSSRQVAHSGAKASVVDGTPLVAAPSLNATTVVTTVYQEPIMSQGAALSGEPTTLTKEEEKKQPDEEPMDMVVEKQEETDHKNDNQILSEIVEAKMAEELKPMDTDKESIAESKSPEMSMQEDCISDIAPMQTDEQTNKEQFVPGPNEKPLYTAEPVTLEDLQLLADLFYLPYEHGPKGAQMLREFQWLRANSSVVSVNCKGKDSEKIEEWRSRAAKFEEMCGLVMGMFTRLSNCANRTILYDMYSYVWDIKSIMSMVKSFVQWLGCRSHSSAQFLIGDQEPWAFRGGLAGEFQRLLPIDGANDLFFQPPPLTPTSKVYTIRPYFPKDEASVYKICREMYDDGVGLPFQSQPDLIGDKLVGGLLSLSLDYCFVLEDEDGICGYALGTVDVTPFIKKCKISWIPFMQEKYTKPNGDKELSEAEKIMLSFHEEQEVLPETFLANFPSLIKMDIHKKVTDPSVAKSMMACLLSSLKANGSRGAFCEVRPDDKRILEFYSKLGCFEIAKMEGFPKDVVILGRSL
Source text: The assay is based on the inhibition of the hydrolysis of fluorescein mono-β-D-N-Acetyl-Glucosamine (FM-GlcNAc) (Mariappa et al. 2015, Biochem J 470:255) by the recombinant human Meningioma Expressed Antigen 5 (MGEA5), also referred to as O-GlcNAcase (OGA). The hydrolysis FM-GlcNAc (Marker Gene technologies, cat # M1485) results in the formation of B-D-N-glucosamineacetate and fluorescein. The fluorescence of the latter can be measured at excitation wavelength 485 nm and emission wavelength 538 nm. An increase in enzyme activity results in an increase in fluorescence signal. Full length OGA enzyme was purchased at OriGene (cat # TP322411). The enzyme was stored in 25 mM Tris.HCl, pH 7.3, 100 mM glycine, 10% glycerol at −20° C. Thiamet G and GlcNAcStatin were tested as reference compounds (Yuzwa et al. 2008 Nature Chemical Biology 4:483; Yuzwa et al. 2012 Nature Chemical Biology 8:393). The assay was performed in 200 mM Citrate/phosphate buffer supplemented with 0.005% Tween-20. 35.6 g Na2HPO4 2 H2O (Sigma, # C0759) were dissolved in 1 L water to obtain a 200 mM solution. 19.2 g citric acid (Merck, # 1.06580) was dissolved in 1 L water to obtain a 100 mM solution. pH of the sodium phosphate solution was adjusted with the citric acid solution to 7.2. The buffer to stop the reaction consists of a 500 mM Carbonate buffer, pH 11.0. 734 mg FM-GlcNAc were dissolved in 5.48 mL DMSO to obtain a 250 mM solution and was stored at −20° C. OGA was used at 2 nM concentration and FM-GlcNAc at a 100 uM final concentration. Dilutions were prepared in assay buffer.
50 nl of a compound dissolved in DMSO was dispensed on Black Proxiplate™ 384 Plus Assay plates (Perkin Elmer, #6008269) and 3 μl fl-OGA enzyme mix added subsequently. Plates were pre-incubated for 60 min at room temperature and then 2 μl FM-GlcNAc substrate mix added. […] Plates were briefly centrifuged for 1 min at 1000rpm and incubate at room temperature for 6 h. To stop the reaction 5 μl STOP buffer were added and plates centrifuge again 1 min at 1000 rpm.
Fluorescence was quantified in the Thermo Scientific Fluoroskan Ascent or the PerkinElmer EnVision with excitation wavelength 485 nm and emission wavelength 538 nm.
For analysis a best-fit curve is fitted by a minimum sum of squares method. From this an IC50 value and Hill coefficient was obtained. High control (no inhibitor) and low control (saturating concentrations of standard inhibitor) were used to define the minimum and maximum values.

OGA = biological target: T2, OGA (Homo sapiens, UniProt O60502); assay: OGA cellular assay (ICC detection of O-GlcNAcylated proteins in HEK293 cells inducible for P301L mutant human Tau); assay type: cell-based; conditions: 6 hours incubation; for EC50: read-out: CELLULAR hOGA, pEC50 (converted)
T2 construct: HEK293 cells inducible for P301L mutant human Tau (isoform 2N4R) were established at Janssen; endogenous in cells; host or cells: HEK293 cells inducible for P301L mutant human Tau (2N4R)
T2 sequence (O60502 1-916): T1 sequence (O60502 1-916)
Protocol: HEK293 cells inducible for P301L mutant human Tau (isoform 2N4R) were established at Janssen. Thiamet-G was used for both plate validation (high control) and as reference compound (reference EC50 assay validation). OGA inhibition is evaluated through the immunocytochemical (ICC) detection of O-GlcNAcylated proteins by the use of a monoclonal antibody (CTD110.6; Cell Signaling, #9875) detecting O-GlcNAcylated residues as previously described (Dorfmueller et al. 2010 Chemistry & biology, 17:1250). Inhibition of OGA will result in an increase of O-GlcNAcylated protein levels resulting in an increased signal in the experiment. Cell nuclei are stained with Hoechst to give a cell culture quality control and a rough estimate of immediate compounds toxicity, if any. ICC pictures are imaged with a Perkin Elmer Opera Phenix plate microscope and quantified with the provided software Perkin Elmer Harmony 4.1.
Cells were propagated in DMEM high Glucose (Sigma, #D5796) following standard procedures. 2 days before the cell assay cells are split, counted and seeded in Poly-D-Lysine (PDL) coated 96-wells (Greiner, #655946) plate at a cell density of 12,000 cells per cm^2 (4,000 cells per well) in 100 µl of Assay Medium (Low Glucose medium is used to reduce basal levels of GlcNAcylation) (Park et al. 2014 The Journal of biological chemistry 289:13519). At the day of compound test medium from assay plates was removed and replenished with 90 μl of fresh Assay Medium. 10 μl of compounds at a 10 fold final concentration were added to the wells. Plates were centrifuged shortly before incubation in the cell incubator for 6 hours. DMSO concentration was set to 0.2%. Medium is discarded by applying vacuum. For staining of cells medium was removed and cells washed once with 100 μl D-PBS (Sigma, #D8537). From next step onwards unless other stated assay volume was always 50 μl and incubation was performed without agitation and at room temperature. Cells were fixed in 50 μl of a 4% paraformaldehyde (PFA, Alpha aesar, # 043368) PBS solution for 15 minutes at room temperature. […] Before analysis samples were washed 2 times manually for 5 minutes in ICC base buffer.
Imaging is performed using Perkin Elmer Phenix Opera using a water 20× objective and recording 9 fields per well. Intensity readout at 488 nm is used as a measure of O-GlcNAcylation level of total proteins in wells. To assess potential toxicity of compounds nuclei were counted using the Hoechst staining. IC50-values are calculated using parametric non-linear regression model fitting. As a maximum inhibition Thiamet G at a 200 uM concentration is present on each plate. In addition, a concentration response of Thiamet G is calculated on each plate.

Structure (SMILES)	Emax [1]	IC50 [1]	ENZYMATIC Emax (%) [1]	Emax (OGA)	EC50 (OGA)	ENZYMATIC hOGA; pIC50 [1]
CC(=O)Nc1ncc(CN2CCC3(CCN(c4cc(C)nc(C)c4)C3)C2)s1 (single isomer, unassigned) [Product 2]	101%	0.0102 µM				
CC(=O)Nc1ncc(CN2CCC3(CCN(c4cc(C)nc(C)c4)C3)C2)s1 (single isomer, unassigned) [Product 3]		0.00372 µM	100.9%	100%	0.282 µM	
Cc1cc(N2CCC3(CCN(Cc4ccc5nccnc5c4)C3)C2)cc(C)n1 (single isomer, unassigned) [Product 4]	98.8%	0.224 µM		23.4%	> 10 µM	
Cc1cc(N2CCC3(CCN(Cc4ccc5nccnc5c4)C3)C2)cc(C)n1 (single isomer, unassigned) [Product 5]		0.219 µM	98.6%			
Cc1cc(N2CCC3(CCN(C(C)c4ccc5nccnc5c4)C3)C2)cc(C)n1 (single isomer, unassigned) [Product 7]	98.6%	0.0724 µM		62.9%	3.8 µM	
CC(=O)Nc1ncc(CN2CCC3(CCN(c4cc(C)nc(C)c4)C3)C2)s1 (stereo not drawn) [Product 1]	102%			123%	0.141 µM	8.22
Cc1cc(N2CCC3(CCN(C(C)c4ccc5nccnc5c4)C3)C2)cc(C)n1 (stereo not drawn) [Product 6]	97.8%	0.0977 µM				
Cc1cc(N2CCC3(CCN(C(C)c4ccc5c(c4)OCO5)C3)C2)cc(C)n1 (stereo not drawn) [Product 8]	96.6%	0.1 µM				
CC(=O)Nc1ncc(CN2CCC3(CCN(c4cc(C)nc(C)n4)C3)C2)s1 (stereo not drawn) [Product 9]	101%			85.4%	0.17 µM	7.88
Cc1cc(N2CCC3(CCN(C(C)c4ccc5c(c4)OCO5)C3)C2)nc(C)n1 (stereo not drawn) [Product 10]	99.8%	0.135 µM				
CC(=O)Nc1ncc(CN2CCC3(CCN(c4cnccn4)C3)C2)s1 (stereo not drawn) [Product 11]	99.1%	0.0813 µM				
CC(=O)Nc1ncc(CN2CCC3(CCN(c4cncc(C)n4)C3)C2)s1 (stereo not drawn) [Product 12]	101%	0.0347 µM				
CC(=O)Nc1ncc(CN2CCC3(CCN(c4cncc(C5CC5)n4)C3)C2)s1 (stereo not drawn) [Product 13]	100%			92.3%		7.69
c1cnc2cc(CN3CCC4(CCN(c5cncc(C6CC6)n5)C4)C3)ccc2n1 (stereo not drawn) [Product 14]	94.2%	0.724 µM				

Second part, the compound after the results:

Emax [1]	IC50 [1]	ENZYMATIC Emax (%) [1]	Emax (OGA)	EC50 (OGA)	ENZYMATIC hOGA; pIC50 [1]	Structure (SMILES)
93.4%	0.229 µM					CC(c1ccc2nccnc2c1)N1CCC2(CCN(c3cncc(C4CC4)n3)C2)C1 (stereo not drawn) [Product 15]
79%	2.69 µM		19.5%	> 10 µM		CC(=O)Nc1cnc(N2CCC3(CCN(C(C)c4ccc5c(c4)OCO5)C3)C2)nc1 (stereo not drawn) [Product 16]
90.6%	0.562 µM					CC(=O)Nc1ncc(CN2CCC3(CCN(Cc4cc(C)nc(C)c4)C3)C2)s1 (stereo not drawn) [Product 17]
102%	0.117 µM		56.4%	0.871 µM		CCc1cncc(N2CCC3(CCN(Cc4cnc(NC(C)=O)s4)C3)C2)n1 (stereo not drawn) [Product 19]
98.1%	0.17 µM		23.6%	> 1 µM		Cc1cc(N2CCC3(CCN(Cc4ccc5scnc5c4)C3)C2)nc(C)n1 (stereo not drawn) [Product 21]
84.4%	2 µM					CC(=O)Nc1ncc(CN2CCC3(CCN(Cc4ccc(C(F)(F)F)cn4)C3)C2)s1 (stereo not drawn) [Product 35]
98.4%	0.0661 µM					CC(=O)Nc1ncc(CN2CCC3(CCN(c4nc(C)cnc4C)C3)C2)s1 (stereo not drawn) [Product 40]
99.8%	0.0537 µM					CC(=O)Nc1ncc(CN2CCC3(CCN(c4cncnc4)C3)C2)s1 (stereo not drawn) [Product 43]
102%	0.0339 µM					CC(=O)Nc1ncc(CN2CCC3(CCN(c4ccc(C)nc4)C3)C2)s1 (stereo not drawn) [Product 44]
99.2%	0.0617 µM					CC(=O)Nc1ncc(CN2CCC3(CCN(c4cnc(C)nc4)C3)C2)s1 (stereo not drawn) [Product 45]
99%	0.112 µM					CC(=O)Nc1ncc(CN2CCC3(CCN(c4ncc(F)cc4F)C3)C2)s1 (stereo not drawn) [Product 46]
97.1%	0.309 µM					COc1nc(C)ccc1N1CCC2(CCN(Cc3cnc(NC(C)=O)s3)C2)C1 (stereo not drawn) [Product 53]
101%	0.0282 µM					CC(=O)Nc1ncc(CN2CCC3(CCN(c4nc(C)ncc4C)C3)C2)s1 (stereo not drawn) [Product 54]
99%	0.0457 µM					CC(=O)Nc1ncc(CN2CCC3(CCN(c4nnc(C)cc4C)C3)C2)s1 (stereo not drawn) [Product 55]
100%	0.0513 µM					CC(=O)Nc1ncc(CN2CCC3(CCN(c4cc(F)ncc4C)C3)C2)s1 (stereo not drawn) [Product 56]
